In BigSolDB 2.1:

O=C(O)CNC(=O)c1ccccc1 showed a solubility (mole fraction) (in 1,4-dioxane, 298.15 K) of 0.00729, a solubility (mole fraction) (in 1,4-dioxane, 303.15 K) of 0.0084 and a solubility (mole fraction) (in 1,4-dioxane, 308.15 K) of 0.0109. It also gave a solubility (mole fraction) (in 1,4-dioxane, 313.15 K) of 0.014, a solubility (mole fraction) (in 1,4-dioxane, 318.15 K) of 0.0164 and a solubility (mole fraction) (in 1,4-dioxane, 323.15 K) of 0.0182. It also gave a solubility (mole fraction) (in 1,4-dioxane, 328.15 K) of 0.0209, a solubility (mole fraction) (in DMF, 298.15 K) of 0.206 and a solubility (mole fraction) (in DMF, 303.15 K) of 0.213. For the same compound, the solubility (mole fraction) (in DMF, 308.15 K) was 0.219, the solubility (mole fraction) (in DMF, 313.15 K) was 0.226 and the solubility (mole fraction) (in DMF, 318.15 K) was 0.232. It also gave a solubility (mole fraction) (in DMF, 323.15 K) of 0.239, a solubility (mole fraction) (in DMF, 328.15 K) of 0.246 and a solubility (mole fraction) (in THF, 298.15 K) of 0.0142. For the same compound, the solubility (mole fraction) (in THF, 303.15 K) was 0.0167, the solubility (mole fraction) (in THF, 308.15 K) was 0.018 and the solubility (mole fraction) (in THF, 313.15 K) was 0.0209. For the same compound, the solubility (mole fraction) (in THF, 318.15 K) was 0.0228, the solubility (mole fraction) (in THF, 323.15 K) was 0.026 and the solubility (mole fraction) (in THF, 328.15 K) was 0.0291. It also gave a solubility (mole fraction) (in chloroform, 298.15 K) of 0.00021, a solubility (mole fraction) (in chloroform, 303.15 K) of 0.00035 and a solubility (mole fraction) (in chloroform, 308.15 K) of 0.00052. It also gave a solubility (mole fraction) (in chloroform, 313.15 K) of 0.0007, a solubility (mole fraction) (in chloroform, 318.15 K) of 0.00088 and a solubility (mole fraction) (in chloroform, 323.15 K) of 0.00102. The solubility (mole fraction) (in chloroform, 328.15 K) was 0.0011, the solubility (mole fraction) (in ethanol, 298.15 K) was 0.0148 and the solubility (mole fraction) (in ethanol, 303.15 K) was 0.0162. It also gave a solubility (mole fraction) (in ethanol, 308.15 K) of 0.0194, a solubility (mole fraction) (in ethanol, 313.15 K) of 0.024 and a solubility (mole fraction) (in ethanol, 318.15 K) of 0.029. The solubility (mole fraction) (in ethanol, 323.15 K) was 0.0342, the solubility (mole fraction) (in ethanol, 328.15 K) was 0.0396 and the solubility (mole fraction) (in methanol, 298.15 K) was 0.0179. The solubility (mole fraction) (in methanol, 303.15 K) was 0.0197, the solubility (mole fraction) (in methanol, 308.15 K) was 0.023 and the solubility (mole fraction) (in methanol, 313.15 K) was 0.0275. For the same compound, the solubility (mole fraction) (in methanol, 318.15 K) was 0.0323, the solubility (mole fraction) (in methanol, 323.15 K) was 0.0378 and the solubility (mole fraction) (in methanol, 328.15 K) was 0.0448. For the same compound, the solubility (mole fraction) (in n-butanol, 298.15 K) was 0.00776, the solubility (mole fraction) (in n-butanol, 303.15 K) was 0.00908 and the solubility (mole fraction) (in n-butanol, 308.15 K) was 0.0106. The solubility (mole fraction) (in n-butanol, 313.15 K) was 0.0128, the solubility (mole fraction) (in n-butanol, 318.15 K) was 0.0151 and the solubility (mole fraction) (in n-butanol, 323.15 K) was 0.0178. The solubility (mole fraction) (in n-butanol, 328.15 K) was 0.0205, the solubility (mole fraction) (in n-propanol, 298.15 K) was 0.00884 and the solubility (mole fraction) (in n-propanol, 303.15 K) was 0.0108. It also gave a solubility (mole fraction) (in n-propanol, 308.15 K) of 0.0121, a solubility (mole fraction) (in n-propanol, 313.15 K) of 0.0151 and a solubility (mole fraction) (in n-propanol, 318.15 K) of 0.0174. The solubility (mole fraction) (in n-propanol, 323.15 K) was 0.0201 and the solubility (mole fraction) (in n-propanol, 328.15 K) was 0.0232.
